Data set [1] can be described thus: Cytotoxicity against human Huh7.5 cells after 72 hrs by MTT assay. It is filed as cell-based. On the technique in general: Tetrazolium assays rely on reduction of a dye to a coloured formazan, in cell work by metabolically active cells.
A further data set relates to Hepatitis C virus. Nature of the data set: Antiviral activity against HCV J6/JFH/JC-1 infected in human Huh7.5 cells assessed as inhibition of viral RNA replication after 72 hrs by qRT-PCR method. It is filed as functional, organism-based, Hepacivirus hominis. The note with it: J6/JFH/JC-1, Huh7.5, 72 h. For orientation: Quantitative PCR measures a nucleic acid by following its amplification.

The nature of data set [2]: Selectivity index, ratio of CC50 for human Huh7.5 cells to EC50 for HCV J6/JFH/JC-1. It is filed as toxicity. The note with it: read-out: Ratio CC50/EC50.

Each structure is given as a SMILES string. A value given as a limit tells only on which side of the number the result lay.

In general, CC50 refers to the concentration at which the toxic effect on the cells reaches its halfway point. A high value points to lower toxicity to the cells. As a reminder, the EC50 is the concentration at which the effect is half-maximal. The compound `O=S(=O)(c1ccc2c(c1)OCCO2)N1CCCC2=C[C@H]3C[C@H](CN4CCCC[C@H]34)[C@@H]21` came in with a half-maximal cytotoxic concentration (CC50) at 72 h in data set [1] of more than 500 µM. In addition, the EC50 with Hepatitis C virus was 23.5 µM. Further, the selectivity ratio in data set [2] was more than 21.3.

`CC(=O)c1ccc(S(=O)(=O)N2CCCC3=C[C@H]4C[C@H](CN5CCCC[C@H]45)[C@@H]32)cc1` came in with a CC50 at 72 h in data set [1] of 234 µM. The EC50 in the data set with Hepatitis C virus was found to be 5.57 µM. For the same compound, the selectivity ratio in data set [2] was 42.1.

Turning to `N#Cc1ccccc1CN1CCCC2=C[C@H]3C[C@H](CN4CCCC[C@H]34)[C@@H]21`, it took 18.8 µM to reach half-maximal cytotoxicity in data set [1] (CC50 at 72 h). Moreover, in the data set on Hepatitis C virus, the EC50 was found to be 1.95 µM. Besides, the selectivity ratio in data set [2] was 9.64.

The compound `C1=C2CCCN[C@H]2[C@@H]2C[C@H]1[C@H]1CCCCN1C2` registered a CC50 at 72 h in data set [1] of 235 µM. Moreover, in the data set on Hepatitis C virus, the EC50 amounted to 4.32 µM. The selectivity ratio in data set [2] is 54.5.

For the compound `CS(=O)(=O)c1ccc(S(=O)(=O)N2CCCC3=C[C@H]4C[C@H](CN5CCCC[C@H]45)[C@@H]32)cc1`, the CC50 at 72 h in data set [1] amounted to 186 µM. Further, the EC50 in the data set on Hepatitis C virus is 18.7 µM. In addition, the selectivity ratio in data set [2] amounted to 9.97.

`COc1ccc(S(=O)(=O)N2CCCC3=C[C@H]4C[C@H](CN5CCCC[C@H]45)[C@@H]32)cc1OC` registered a CC50 at 72 h in data set [1] of 215 µM. In addition, the EC50 with Hepatitis C virus was found to be 6.39 µM. Also, in data set [2], the selectivity ratio was found to be 33.6.

For the compound `Cc1nc(N)sc1S(=O)(=O)N1CCCC2=C[C@H]3C[C@H](CN4CCCC[C@H]34)[C@@H]21`, in data set [1], the CC50 at 72 h is 209 µM. For the same compound, the concentration for a half-maximal effect (EC50) with Hepatitis C virus came out at 6.03 µM. For the same compound, the selectivity ratio in data set [2] is 34.7.

As for `O=[N+]([O-])c1ccc(CN2CCCC3=C[C@H]4C[C@H](CN5CCCC[C@H]45)[C@@H]32)cc1`, in data set [1], the CC50 at 72 h amounted to 94.4 µM. The EC50 in the data set on Hepatitis C virus turned out to be 3.56 µM. Further, the selectivity ratio in data set [2] is 26.5.

`C1=C2CCCN(Cc3ccncc3)[C@H]2[C@@H]2C[C@H]1[C@H]1CCCCN1C2` showed a CC50 at 72 h in data set [1] of more than 500 µM. Also, the concentration giving a half-maximal response (EC50) in the data set with Hepatitis C virus stood at 97.9 µM. In addition, the selectivity ratio in data set [2] is more than 5.11.

As for `O=S(=O)(c1cccc2nsnc12)N1CCCC2=C[C@H]3C[C@H](CN4CCCC[C@H]34)[C@@H]21`, it took 314 µM to reach half-maximal cytotoxicity in data set [1] (CC50 at 72 h). Besides, in the data set on Hepatitis C virus, the EC50 was 5.5 µM. Moreover, the selectivity ratio in data set [2] worked out at 57.2.

For the compound `O=C(O)c1ccc(C(=O)N2CCCC3=C[C@H]4C[C@H](CN5CCCC[C@H]45)[C@@H]32)cc1`, in data set [1], the CC50 at 72 h was more than 500 µM. Also, the EC50 in the data set with Hepatitis C virus came to 73.7 µM. Besides, the selectivity ratio in data set [2] was more than 6.78.

Regarding `O=S(=O)(c1ccc2c(c1)CCO2)N1CCCC2=C[C@H]3C[C@H](CN4CCCC[C@H]34)[C@@H]21`, the CC50 at 72 h in data set [1] was 217 µM. Moreover, in the data set with Hepatitis C virus, the EC50 was found to be 8.65 µM. Besides, the selectivity ratio in data set [2] was 25.1.

Compound `COc1ccc(Cl)cc1S(=O)(=O)N1CCCC2=C[C@H]3C[C@H](CN4CCCC[C@H]34)[C@@H]21` had a 50% cytotoxic concentration (CC50) at 72 h in data set [1] of 92.9 µM. Besides, the EC50 with Hepatitis C virus was 1.21 µM. For the same compound, in data set [2], the selectivity ratio was 76.8.

In turn, `CC(=O)Nc1nc(C)c(S(=O)(=O)N2CCCC3=C[C@H]4C[C@H](CN5CCCC[C@H]45)[C@@H]32)s1` returned a CC50 at 72 h in data set [1] of 182 µM. Also, the EC50 with Hepatitis C virus was found to be 12.4 µM. For the same compound, the selectivity ratio in data set [2] turned out to be 14.7.

As to `Nc1ccc(S(=O)(=O)N2CCCC3=C[C@H]4C[C@H](CN5CCCC[C@H]45)[C@@H]32)cc1`, the CC50 at 72 h in data set [1] was 288 µM. In addition, in the data set with Hepatitis C virus, the concentration giving a half-maximal response (EC50) came out at 10.7 µM. The selectivity ratio in data set [2] is 26.9.

Consider `CC(C)Oc1ccc(S(=O)(=O)N2CCCC3=C[C@H]4C[C@H](CN5CCCC[C@H]45)[C@@H]32)cc1`, for which, in data set [1], the CC50 at 72 h is 34.8 µM. In addition, the EC50 with Hepatitis C virus was 1.81 µM. Moreover, the selectivity ratio in data set [2] was 19.2.

Take `O=C(O)c1ccc(S(=O)(=O)N2CCCC3=C[C@H]4C[C@H](CN5CCCC[C@H]45)[C@@H]32)cc1`: the cytotoxic concentration (CC50) at 72 h in data set [1] was more than 500 µM. Further, the EC50 with Hepatitis C virus is more than 167 µM.
